# Results taken from US11723362B2, “Broad-spectrum synergistic antimicrobial compositions” (The United States of America, as represented by the …, priority 2019, dated 2023).
# Experiments:
# [1] = system: Pseudomonas aeruginosa ATCC 9027; experiment: Bactericidal activity in ionic surfactant hand wash / foamy hand soap base formula (HW); assay type: cell-based; settings: pH 7.0
# Protocol: This example illustrates the preparation of testing parameters for antimicrobial activity of components of the inventive composition and related compositions for comparison. […] Mold were grown and minimum inhibitory tests performed as previously reported (see e.g., Buckley, H. L. et al. ACS Sustain. Chem. Eng. 5, 4320-4331, 2017). Microbes were grown on Mueller-Hinton agar (MHA, Sigma-Aldrich, St. Louis, Mo.) for 7 days until heavy sporulation was present. Spores from two agar plates were captured in sterile phosphate-buffered saline (PBS) using a sterile swab. Spores were enumerated by serial dilution in Dey-Engley neutralizing broth (DEB; Sigma-Aldrich) and spread plating on MHA. A typical spore stock was determined to contain ˜2×10^7 spores/mL. Bacteria were grown in MH broth for 24 h at 37° C., enumerated by plating, and diluted to the desired concentration as indicated.
# To test the various compounds, a foamy hand soap base formula was made with sodium lauryl sulfate (SLS, 2.4% w/w; Sulfochem SLS-PHP [30% active], The Lubrizol Corporation, Wickliffe, Ohio) and cocoamidopropyl betaine (CAPB, 1.2% w/w; Mackam 35 [30% active], Solvay S.A, Brussels, Belgium) in deionized water and sterilized by filtration (0.22 μm, PVDF; VWR, Radnor, Pa.). All test formulas were adjusted to the desired pH using citric acid and/or NaOH. All tubes were inoculated with 250 μL of spore inoculum (described above) to a total volume of 5 mL, for a final spore concentration of ˜1×10^6 spores/mL in each tube. […] About 100 μL of each inoculated foamy hand soap mixture was diluted 1:10 in DEB and 100 μL of this dilution was spread plated on MHA at several time points (e.g. 3 d, 7 d, 13 d, 18 d, and 20 d). Plates were incubated at room temperature for 3-5 days for mold (1-2 days for bacteria) and colonies enumerated.
# A. brasiliensis = experiment: Minimum inhibitory concentration (MIC) in Mueller-Hinton broth, pH 7.4; assay type: cell-based, Aspergillus brasiliensis; settings: Table 2
# Protocol: (§1) This example illustrates the preparation of testing parameters for antimicrobial activity of components of the inventive composition and related compositions for comparison. […] Microbes were grown on Mueller-Hinton agar (MHA, Sigma-Aldrich, St. Louis, Mo.) for 7 days until heavy sporulation was present. Spores from two agar plates were captured in sterile phosphate-buffered saline (PBS) using a sterile swab. Spores were enumerated by serial dilution in Dey-Engley neutralizing broth (DEB; Sigma-Aldrich) and spread plating on MHA. A typical spore stock was determined to contain ˜2×10^7 spores/mL. Bacteria were grown in MH broth for 24 h at 37° C., enumerated by plating, and diluted to the desired concentration as indicated.
# (§2) To assess the antimicrobial activity of hydroxamic acids and derivatives, the inhibitory properties of commercially available hydroxylamines and hydroxamic acids were compared to their alcohol and carboxylic acid analogues diluted in Mueller-Hinton broth at pH 7.4 (Table 1).
# [2] = Dissolution / compatibility in water (observation); assay type: physicochemical; settings: sample preparation for extended preservative test
# Protocol: Several aryl derivatives of benzhydroxamic acid were also tested.
# [3] = system: Aspergillus brasiliensis ATCC 16404; experiment: Fungicidal activity in ionic surfactant hand wash / foamy hand soap base formula (HW); assay type: cell-based; settings: pH 7.0
# Protocol: as §1
# All test formulas were adjusted to the desired pH using citric acid and/or NaOH. […] All tubes were kept at room temperature (˜21-22° C.) for 3 weeks. About 100 μL of each inoculated foamy hand soap mixture was diluted 1:10 in DEB and 100 μL of this dilution was spread plated on MHA at several time points (e.g. 3 d, 7 d, 13 d, 18 d, and 20 d). Plates were incubated at room temperature for 3-5 days for mold (1-2 days for bacteria) and colonies enumerated.
# The preservative activity of a hydroxamic acid/guanylhydrazone combination was compared to other antimicrobial mixtures in an ionic surfactant-containing formula. […] The fungicidal properties of a mixture of benzhydroxamic acid and guanylhydrazone (1+7) was compared to commercial antimicrobials representing different functional classes (Table 3).
# P. aeruginosa = experiment: Minimum inhibitory concentration (MIC) in Mueller-Hinton broth, pH 7.4; assay type: cell-based, Pseudomonas aeruginosa; settings: Table 2, ATCC 9027
# Protocol: as §1, §2
# Guanylhydrazones 7 and 8, which represent a class of broad-spectrum antimicrobials, alone and in combination with hydroxamic acids were evaluated.
# [4] = system: Aspergillus brasiliensis ATCC 16404; experiment: Effect of pH on antifungal properties of HW formula under high fungal load; assay type: cell-based; settings: HW with 0.4% 7 alone; 10^7 CFU/mL; pH 5.5-9.5
# Text: FIG. 1 illustrates the fungicidal properties of a handwash formula containing the inventive composition as further explained in the examples below. The Y axis presents the log reduction of cell forming units per mL (CFU/mL). The X axis presents the pH of the different formulas. Data for benzaldehyde guanylhydrazone 7+CHA is shown with black lines (BGH+CHA); data for benzaldehyde guanylhydrazone 7 (BGH) is shown with dotted lines; data for CHA alone is shown with grey lines.
# (§3) This example illustrates the surprising synergistic antimicrobial activity of the inventive composition and related compositions for comparison tested on two of the most persistent microorganisms tested in the USP 51 protocol: A. brasiliensis (ATCC No. 16404) and P. aeruginosa (ATCC NO. 9027). The effect of pH on antifungal properties of a HW formula containing 0.4% 7 and 0.5% CHA, alone and in combination, was then evaluated under a high fungal load (10^7 CFU/mL). […] Without intending to be bound by theory, it was suspected that the poor performance of the combination at neutral pH results from the milder conditions of this formula, which is more encouraging to mold growth.
# A. brasiliensis 16404 = experiment: USP-51 preservative challenge test of anionic, amphoteric surfactant-containing hand wash; assay type: cell-based, Aspergillus brasiliensis; settings: HW pH 6; formulas: 0.4% 7; 0.5% CHA; 0.2% 7 + 0.5% CHA
# Protocol: (§4) Preservative challenge testing (USP-51).
# as §3
# [5] = system: E. coli, S. aureus, P. aeruginosa, A. brasiliensis, B. cepacia, and C. albicans; settings: 0.2% in nonionic spray cleaner base lacking additional preservatives; 28 days
# Text: Preservative challenge testing (USP-51). The protocol for the preservative challenge testing followed the US Pharmacopeia Chapter 51 (USP 51). Under the USP 51 protocol, the test organisms are Candida albicans (ATCC No. 10231), Aspergillus brasiliensis (also referred to as A. niger) (ATCC No. 16404), Escherichia coli (ATCC No. 8739), Pseudomonas aeruginosa (ATCC No. 9027), and Staphylococcus aureus (ATCC No. 6538). To access the potency of a preservative in a personal care product formula, microorganisms were added separately to a sample of the product formula, such that their final concentrations were between 1.00E+05 and 1.00E+06 CFU (colony forming units)/mL of product. The inoculated personal care product formulas were incubated at specific temperatures (relative to the organism) and plated over the course of two weeks. During plating, the number of colony-forming units (CFU's) were counted to determine the number of viable microbial cells still present in the solution. Antimicrobial effectiveness is determined by logarithmic reductions in growth over time.
# The effect of CG on mold, bacteria, and yeast were tested following the USP <51> procedure. […] For the instant examples, the criteria for passing the USP 51 preservative efficacy protocol against bacteria is a reduction of not less than 2-log 10 from the initial count at 14 days, and no increase from the 14 day count at 28 days. […]
# P. aeruginosa ATCC 15442 = experiment: AOAC Use Dilution test; assay type: cell-based, Pseudomonas aeruginosa; settings: 60 carriers tested, ten minutes contact time
# Protocol: (§5) MICROCHEM Laboratories completed the AOAC Use dilution, semi-quantitative test method against the 3 strains of bacteria using the maximum contact time of ten minutes with three replicates from the same sample submission. For the S. aureus testing, MICROCHEM Laboratories followed ASTM E2315 method with a 10 minute exposure but only a single replicate was tested. The ASTM E2315 quantitative test method was used by MICROCHEM Laboratories to access the performance of a single replicate of the test compounds against the MS2 virus using a 10 minute contact time.
# (§6) The killing efficacy of Cuminaldehyde Guanylhydrazone (CG) in water against three bacteria was evaluated using the AOAC Use Dilution test. While a passing kill rate against Pseudomonas aeruginosa, and a close to, but just below the target kill rate, for Salmonella enterica were detected, a kill rate against Staphylococcus aureus was not achieved. The test results were the same for both concentrations tested (0.2 wt. % and 0.5 wt. %).
# S. enterica ATCC 10708 = experiment: AOAC Use Dilution test; assay type: cell-based, Salmonella enterica; settings: 60 carriers tested, ten minutes contact time
# Protocol: as §5, §6
# mold = experiment: USP <51> preservative efficacy in nonionic spray cleaner base (mold); assay type: cell-based, A. brasiliensis; settings: alone, 0.1% in spray cleaner base
# Text: as §4
# [6] = Stability of CG in commercial household products; assay type: physicochemical; settings: nonionic spray cleaners, polishes, hand soap, liquid dish soap; refrigerator (2.8° C.), room temperature (21.1° C.), oven (40° C.), 3 freeze-thaw cycles
# Protocol: Freeze-thaw studies were conducted using a commercial refrigerator freezer and were completed over a two week period where the samples were frozen, thawed and observed for 3 cycles. Additional samples were stored in 15 mL Falcon tubes in the refrigerator, at room temperature and in a 40° C. oven. These samples were removed and evaluated at three time points in conjunction with the freeze-thaw samples. The compositions of the household products in which CG was stable are listed below in tables 13 and 14. The “Surfactant Control” was composed as follows: 4% 1,3-propanediol, 4% alkyl polyglucoside (C8-C16), 2% ethoxylated fatty alcohol (Clariant Genapol LA 070), 90% deionized water. Cuminaldehyde Guanylhydrazone (CG) was added to several different commercial products. Stability testing was performed in refrigerator (2.8° C.), at room temperature (21.1° C.), in an oven (40° C.), and through 3 freeze-thaw cycles. It was determined that CG was stable in at least 4 different classes of household products including nonionic spray cleaners, polishes, hand soap, and liquid dish soap. […] Not intending to be theory-bound, these instabilities may be attributed mainly to carbonate, anionic surfactants, or high pH.
# S. aureus ATCC 6538 = experiment: AOAC Use Dilution test; assay type: cell-based, Staphylococcus aureus; settings: 60 carriers tested, ten minutes contact time
# Protocol: as §5, §6
# [7] = hand soap formula, 0.2 wt % 8 alone
# [8] = hand soap formula, 0.3 wt % 8 alone, minimum detection limit 5.0 × 10^1
# [9] = HW, substance alone 0.1%, 1 × 10^6 CFU/ml, 37° C.
smiles,measurement,setting,value
"CCCCCCCCc1ccc(C=NNC(=N)N)cc1 [4-n-octylbenzaldehyde guanylhydrazone 8, 4-n-octylbenzaldehyde guanylhydrazone]",CFU/mL after 7 d contact time,[1]; [7],>2 × 10^4 CFU/mL
same,Minimum inhibitory concentration,A. brasiliensis,0.002
same,compatibility in water,[2],not compatible in water
same,CFU/mL after 7 d contact time,[3]; [7],>2 × 10^4 CFU/mL
same,"CFU/mL, incubation time 3 d",[3]; [8],>2.5 × 10^4 CFU/mL
same,"CFU/mL, incubation time 7 d",[3]; [8],>2.5 × 10^4 CFU/mL
same,"CFU/mL, incubation time 13 d",[3]; [8],>2.5 × 10^4 CFU/mL
same,"CFU/mL, incubation time 18 d",[3]; [8],>2.5 × 10^4 CFU/mL
same,"CFU/mL, incubation time 20 d",[3]; [8],>2.5 × 10^4 CFU/mL
"N=C(N)NN=Cc1ccccc1 [Benzaldehyde guanylhydrazone 7, Benzaldehyde guanylhydrazone]",Minimum inhibitory concentration,P. aeruginosa,0.06
same,antifungal performance over the pH range,[4],"poor performance, except at high pH"
same,Day 3 Log Reduction,[1]; [9],4 Log
same,Day 10 Log Reduction,[1]; [9],4 Log
same,"Log10 Reduction, Day 6",A. brasiliensis 16404,0.35 Log10
same,Log reduction Week 2,"[3]; HW, 0.4 wt %, 1 × 10^6 CFU/mL, 25° C.",none
"CC(C)c1ccc(/C=N/NC(=N)N)cc1 [CG, (2E)-2-{[4-(propan-2-yl)phenyl]methylidene} hydrazine-1-carboximidamidium]","USP 51 preservative efficacy protocol result against bacteria, yeast, and mold",[5],passed
same,Confirmed Positive carriers,P. aeruginosa ATCC 15442; CG 0.2 wt. % in water,2
same,Result,P. aeruginosa ATCC 15442; CG 0.2 wt. % in water,Pass (6)
same,Confirmed Positive carriers,P. aeruginosa ATCC 15442; CG 0.5 wt. % in water,2
same,Result,P. aeruginosa ATCC 15442; CG 0.5 wt. % in water,Pass (6)
same,Confirmed Positive carriers,S. enterica ATCC 10708; CG 0.2 wt. % in water,2
same,Result,S. enterica ATCC 10708; CG 0.2 wt. % in water,Fail (2)
same,Confirmed Positive carriers,S. enterica ATCC 10708; CG 0.5 wt. % in water,2
same,Result,S. enterica ATCC 10708; CG 0.5 wt. % in water,Fail (2)
same,log reduction of mold (not eliminated to nondetectable levels),mold,< 4 log
same,stability in household products,[6],stable
same,Confirmed Positive carriers,S. aureus ATCC 6538; CG 0.2 wt. % in water,12
same,Result,S. aureus ATCC 6538; CG 0.2 wt. % in water,Fail (3)
same,Confirmed Positive carriers,S. aureus ATCC 6538; CG 0.5 wt. % in water,12
same,Result,S. aureus ATCC 6538; CG 0.5 wt. % in water,Fail (3)
